From US20210000894A1, “Anti-Stress Composition” (MORINAGA MILK INDUSTRY CO., LTD., priority 2018, published 2021)

System: social defeat stress-bearing C57BL/6J mice
Test: Social defeat stress: escape time (time taken to be bitten 20 times by the male ICR mouse)
Type: in vivo
Conditions: for escape time, average value: C57BL/6J mice, L. helveticus as living cells orally once a day
Protocol: In the present experiment, an experiment of causing a small mouse to experience social defeat by allowing the small mouse to be bitten many times by a large mouse was carried out, and an effect of Lactobacillus helveticus on behavioral changes caused by social defeat stress (decrease in escape behavior, a lethargic state) was investigated. In the present experiment, C57BL/6J mice were used as social defeat stress-bearing mice. In a cage of male and female ICR mice cohabiting for three weeks or longer, only the male parent was left. A C57BL/6J mouse was brought into that cage, and the time taken by the C57BL/6J mouse to be bitten 20 times by the male parent mouse (escape time) was measured. As the escape time increases, it is implied that the C57BL/6J mouse attempts to escape from the ICR mouse, and therefore, it was determined that the social defeat stress is reduced. From two days before the beginning of giving social defeat stress until the end of the behavioral test, the experiment was carried out respectively for mice to which milnacipran was administered (Toledomin tablets; manufactured by Janssen Pharmaceutical K.K.) (positive control), mice to which nothing was administered (vehicle control), and mice to which living bacterial cells of Lactobacillus helveticus NITE BP-01671 were orally administered once a day using a sonde needle.

SMILES: CCN(CC)C(=O)C1(c2ccccc2)CC1CN (stereo not shown) [milnacipran]
- escape time compared to the vehicle control (in words) (C57BL/6J mice under social defeat stress, summary of Table 1): increased significantly compared to the vehicle control
- escape time, average value (Day 1, administered from two days before stress): 24.6 s
- escape time, average value (Day 2): 42.9 s
- escape time, average value (Day 3): 65.9 s
- escape time, average value (Day 4): 63.2 s
- escape time, average value (Day 5): 81.0 s
- escape time, average value (Day 8): 114.8 s
- escape time, average value (Day 9): 159.0 s
- escape time, average value (Day 10): 183.2 s
- escape time, average value (Day 11): 183.9 s
- escape time, average value (Day 12): 143.2 s
- escape time, average value (Day 15): 68.7 s
- escape time, average value (Day 16): 46.9 s
